Measurements: patent US20130053392A1, “CARBONIC ANHYDRASE INHIBITORS” (priority 2010, published 2013)
“Also recorded” adds a separate entry of the source.

Tests used:
[1] = prior art compound (Winum et al); cited from earlier work
[2] = tested on: 94/1 CA IX knock down cells (HT-29); experiment: Clonogenic survival after irradiation, 94/1 cells; assay type: cell-based, human
Procedure: (§1) Cells were incubated with S4 1 h after the start of the anoxic/normoxic exposure, during 23 h. […] After incubation, cells were irradiated on ice (MCN 225 industrial X-ray tube (Philips, Eindhoven, NL) at 225 kV and 10 mA under the respective oxygen concentrations using different doses (Normoxia: 0, 2, 4, 6, and 8 Gy; Anoxia: 0, 4, 8, 12 and 16 Gy). After irradiation, cells were washed, trypsinized and plated for the clonogenic survival assay and incubated under standard culture conditions until colonies were formed (14 days). Colonies were fixed and stained with 4% methylene blue in 70% ethanol. Plating efficiency was determined by counting colonies consisting of >50 cells and correcting for the number of cells seeded.

[3] = tested on: HT29 colon carcinoma cells; experiment: Mouse xenograft model, HT29 colon carcinoma; assay type: in vivo, mice
FaDU head and neck cells = experiment: FaDU spheroid clonogenicity assay with doxorubicin or radiation; assay type: cell-based; conditions: listed as S4
Procedure: These studies were undertaken using tumour cells grown into 3-D spheroid cultures that have a natural oxygen gradient. Spheroids of FaDU head and neck cells were generated and treated for 24 h with S4 or vehicle alone; doxorubicin alone or in combination with S4; and S4 or vehicle plus 10 Gy radiotherapy given at the end of the 24 h exposure. Spheroids were treated with trypsin to generate single cell suspensions and plated at various dilutions. Clonogenecity was then recorded per spheroid.
Spheroids were generated by the “liquid overlay technique”. […] The coating prevents the cells from forming monolayers and gives rise of spheroid growth.
The spheroids were grown in a CO2-incubator for 5-7 days. Thereafter, the spheroids were collected and grown in a spinner flask for an additional 5-7 days until they reached a diameter of ˜500-750 μm (10%-0.1% O2 gradient in spheroid).
Spheroids were pooled for the following treatments: • 1. Vehicle for 24 hours • 2. […] Doxorubicin (10 μM) for 24 h • 4. Vehicle for 24 hours followed by 10 Gy radiotherapy • 5.
Directly thereafter, spheroids were digested to single cells using trypsin/EDTA and the cells seeded at a range of concentration in culture plates (clonogenicity assay).
After about a week the cells were stained with methylene blue and the number of colonies counted.

MDA231-EGFP cells = experiment: Orthotopic MDA231-EGFP mammary fat pad tumour and lung clonogen (metastasis) model; assay type: in vivo, mice; conditions: 10 mg/kg, 5 days on, 2 days off
Procedure: 16 mice were implanted with 0.1 ml of a 5×10^7/ml suspension of MDA231-EGFP cells into the mammary fat pad of anaesthetized mice. The cells were prepared in a 1:1 mix of Matrigel: serum-free RMPI.
Mouse condition was monitored daily and tumour volumes recorded at least 3× per week.
Once tumours reached approximately 100 mm^3, they were randomised in to the following treatment groups:
Group 1: 8 mice implanted with MDA231-EGFP cells received vehicle administered in a “5 days on, 2 days” off schedule (ie Mon-Fri dosing each week).
Group 2: 8 mice implanted with MDA231-EGFP cells received CA-IX inhibitor S4 administered at 10 mg/kg dose in a “5 days on, 2 days” off schedule (ie Mon-Fri dosing each week).
Treatment was continued until primary tumours reached a designated endpoint volume of approx 1000 mm^3.
Mouse health and condition was monitored throughout and weights recorded up to 3 times per week.
Before sacrifice Pimonidazole at 0.2 ml of 10 mg/ml solution i/p (2 h before) and 0.1 ml of a 6 mg/ml Hoechst solution (iv) (1 minute before) were administered. Tumour and lungs were rapidly removed for processing.
Clonogens were assessed in lungs using a clonogenic assay. About a quarter of the total lung tissue was taken and weighed. […] Clones were then stained with bromophenol blue and counted, calculating the number per mg of tissue following correction for the dilution.

[4] = Proliferation/viability assays; assay type: cell-based; conditions: 33 μM
Procedure: CA IX inhibition, either using a genetic approach (knock down) or pharmacological (S4) results in a sensitization to irradiation. Genetically or pharmacologically, this sensitization occurs to a similar extent. Pharmacological testing was performed at 33 μM, a concentration selected based on no-toxicity under normoxic conditions based on proliferation/viability assays.

[5] = tested on: EV/2 CA IX expressing cells (HT-29); experiment: Clonogenic survival after irradiation, EV/2 cells; assay type: cell-based, human; conditions: S4 33 μM 23 h
Procedure: as §1

| Compound | stability in solution [1] | sensitization to irradiation, normoxic exposure ([2]; S4 33 μM 23 h, normoxia) | effect on radiosensitivity of knock down cells ([2]; S4 33 μM pretreatment) | volume of the tumour versus control ([3]; HT29 xenograft, FIG. 3) | reduction of the tumor growth ([3]; highest dosage of CA inhibitor, HT29 xenograft in nude CD1 mice) | clonogenic survival, combination with radiation (FaDU head and neck cells; S4 33 μM 24 h plus 10 Gy radiotherapy) | clonogenic survival, combination with doxorubicin (FaDU head and neck cells; S4 33 μM plus doxorubicin 10 μM, 24 h) | clonogenicity per spheroid, inhibitor alone (FaDU head and neck cells; S4 alone (33 μM), 24 h, FIG. 9) | number of metastatic MDA-231 clonogens (colonies per gram of lung tissue) versus vehicle (MDA231-EGFP cells; FIG. 5) | tumour volume against time versus vehicle (MDA231-EGFP cells; orthotopic MDA-231 tumours, FIG. 4) | toxicity under normoxic conditions [4] | sensitization to irradiation, 24 h anoxia ([5]; anoxia, 8, 12 and 16 Gy, FIG. 18) | sensitization to irradiation, normoxic exposure ([5]; normoxia, 0-8 Gy) |
| --- | --- | --- | --- | --- | --- | --- | --- | --- | --- | --- | --- | --- | --- |
| NS(=O)(=O)Oc1ccc(Cl)cc1 [4-chlorophenyl sulphamate] | relatively unstable in solution | – | – | – | – | – | – | – | – | – | – | – | – |
| Cc1cc(C)cc(NC(=O)Nc2ccc(OS(N)(=O)=O)cc2)c1 [Compound 3p, 4-[(3,5-dimethylphenyl)ureido]phenyl sulfamate] | – | no sensitization to irradiation was demonstrated | had no effect on the radiosensitivity | significant reduction in the volume of the tumour | 30% | reduced colongenic survival compared with either agent alone; also recorded: significant reduction in colony formation per spheroid | reduced colongenic survival compared with either agent alone; also recorded: significant reduction in colony formation per spheroid | little effect on growth of cells isolated from the spheroids; also recorded: little effect on cell growth | significantly fewer metastatic clonogens | little or no effect on the growth of the orthotopic MDA-231 tumours | no-toxicity | a sensitization to irradiation was observed | no sensitization to irradiation was demonstrated |
